From patent US11306092B2, “Amino indole compounds useful as TLR inhibitors” (BRISTOL-MYERS SQUIBB COMPANY, priority 2017, dated 2022)

What was measured:
human TLR7 = molecular target: T1, human TLR7 (Homo sapiens, UniProt Q9NYK1); assay: TLR7 inhibition reporter assay (HEK-Blue SEAP reporter); format: cell-based; conditions: HEK-Blue cells overexpressing human TLR7; gardiquimod 7.5 μM; 22 hour incubation
T1 construct: host or cells: HEK-Blue cells
T1 sequence (Q9NYK1 27-1049): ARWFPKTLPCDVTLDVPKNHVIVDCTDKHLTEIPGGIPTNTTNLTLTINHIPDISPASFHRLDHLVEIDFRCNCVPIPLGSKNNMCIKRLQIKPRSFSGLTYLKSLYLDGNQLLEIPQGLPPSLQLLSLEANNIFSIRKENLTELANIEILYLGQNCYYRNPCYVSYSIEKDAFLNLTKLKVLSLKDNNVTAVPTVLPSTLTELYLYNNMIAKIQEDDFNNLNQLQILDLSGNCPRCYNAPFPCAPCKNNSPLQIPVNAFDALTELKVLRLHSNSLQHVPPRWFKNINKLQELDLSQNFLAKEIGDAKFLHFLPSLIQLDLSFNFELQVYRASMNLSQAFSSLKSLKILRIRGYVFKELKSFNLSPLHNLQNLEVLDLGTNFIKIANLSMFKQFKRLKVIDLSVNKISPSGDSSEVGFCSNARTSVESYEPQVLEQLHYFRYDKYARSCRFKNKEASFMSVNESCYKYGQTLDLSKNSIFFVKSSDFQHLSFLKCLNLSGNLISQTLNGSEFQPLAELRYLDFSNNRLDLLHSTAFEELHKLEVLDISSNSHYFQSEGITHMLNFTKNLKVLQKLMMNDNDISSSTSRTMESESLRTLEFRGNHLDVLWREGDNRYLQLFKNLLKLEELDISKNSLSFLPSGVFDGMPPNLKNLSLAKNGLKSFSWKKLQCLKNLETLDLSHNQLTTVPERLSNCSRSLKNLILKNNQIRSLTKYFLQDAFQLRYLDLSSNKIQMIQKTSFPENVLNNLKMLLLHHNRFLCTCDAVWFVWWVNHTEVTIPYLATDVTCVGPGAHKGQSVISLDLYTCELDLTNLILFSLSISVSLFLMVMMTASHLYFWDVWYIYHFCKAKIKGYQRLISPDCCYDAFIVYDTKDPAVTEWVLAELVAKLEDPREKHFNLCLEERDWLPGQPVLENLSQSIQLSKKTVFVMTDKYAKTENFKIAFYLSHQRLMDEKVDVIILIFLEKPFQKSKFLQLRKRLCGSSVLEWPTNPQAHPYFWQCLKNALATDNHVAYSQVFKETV
Description: (§1) TLR7/8/9 Inhibition Reporter Assays
(§2) HEK-Blue™-cells (Invivogen) overexpressing human TLR7, TLR8 or TLR9 receptors were used for screening inhibitors of these receptors using an inducible SEAP (secreted embryonic alkaline phosphatase) reporter gene under the control of the IFN-β minimal promoter fused to five NF-κB and AP-1-binding sites. Briefly, cells are seeded into Greiner 384 well plates (15000 cells per well for TLR7, 20,000 for TLR8 and 25,000 for TLR9) and then treated with test compounds in DMSO to yield a final dose response concentration range of 0.05 nM-50 μM. After a 30 minute compound pre-treatment at room temperature, the cells are then stimulated with a TLR7 ligand (gardiquimod at a final concentration of 7.5 μM), TLR8 ligand (R848 at a final concentration of 15.9 μM) or TLR9 ligand (ODN2006 at a final concentration of 5 nM) to activate NF-κB and AP-1 which induce the production of SEAP. After a 22 hour incubation at 37° C., 5% CO2, SEAP levels are determined with the addition of HEK-Blue™ Detection reagent (Invivogen), a cell culture medium that allows for detection of SEAP, according to manufacturer's specifications. The percent inhibition is determined as the % reduction in the HEK-Blue signal present in wells treated with agonist plus DMSO alone compared to wells treated with a known inhibitor.

human TLR9 = molecular target: T2, human TLR9 (Homo sapiens, UniProt Q9NR96); assay: TLR9 inhibition reporter assay (HEK-Blue SEAP reporter); format: cell-based; conditions: HEK-Blue cells overexpressing human TLR9; ODN2006 5 nM; 22 hour incubation
T2 construct: host or cells: HEK-Blue cells
T2 sequence (Q9NR96 26-1032): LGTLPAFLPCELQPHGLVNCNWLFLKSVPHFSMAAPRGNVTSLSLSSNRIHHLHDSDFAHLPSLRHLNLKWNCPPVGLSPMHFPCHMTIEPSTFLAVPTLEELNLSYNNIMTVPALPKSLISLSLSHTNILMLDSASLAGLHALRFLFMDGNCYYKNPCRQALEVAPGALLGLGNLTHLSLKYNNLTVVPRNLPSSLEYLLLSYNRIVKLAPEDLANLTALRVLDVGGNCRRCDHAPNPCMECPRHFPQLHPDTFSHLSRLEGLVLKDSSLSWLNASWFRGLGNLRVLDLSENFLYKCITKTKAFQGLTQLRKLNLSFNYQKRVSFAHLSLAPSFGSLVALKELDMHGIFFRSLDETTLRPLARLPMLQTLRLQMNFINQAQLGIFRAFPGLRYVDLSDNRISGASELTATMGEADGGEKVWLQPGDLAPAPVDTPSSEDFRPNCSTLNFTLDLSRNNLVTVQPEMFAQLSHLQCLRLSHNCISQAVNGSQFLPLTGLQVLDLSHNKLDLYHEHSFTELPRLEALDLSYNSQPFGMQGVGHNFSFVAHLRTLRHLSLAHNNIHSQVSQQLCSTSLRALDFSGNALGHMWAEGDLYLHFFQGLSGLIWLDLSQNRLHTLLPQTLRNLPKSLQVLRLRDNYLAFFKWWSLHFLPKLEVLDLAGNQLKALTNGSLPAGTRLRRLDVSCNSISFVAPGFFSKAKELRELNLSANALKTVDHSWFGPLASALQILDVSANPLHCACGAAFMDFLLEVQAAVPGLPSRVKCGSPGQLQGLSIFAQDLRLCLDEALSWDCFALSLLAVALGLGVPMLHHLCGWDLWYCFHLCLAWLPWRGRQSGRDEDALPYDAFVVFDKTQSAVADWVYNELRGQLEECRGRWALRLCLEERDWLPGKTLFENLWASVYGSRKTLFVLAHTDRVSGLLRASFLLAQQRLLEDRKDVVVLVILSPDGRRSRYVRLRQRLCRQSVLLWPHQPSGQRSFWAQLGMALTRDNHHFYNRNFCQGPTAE
Description: as §1, §2

Compound | IC50 (human TLR7) | IC50 (human TLR9)
COc1ccc(-c2[nH]c3ccc(NC4CCC(N5CCN(CC(C)C)CC5)CC4)cc3c2C(C)C)cc1OC (centres unmarked) [Example 51, 2-(3,4-dimethoxyphenyl)-N-(4-(4-isobutylpiperazin-1-yl)cyclohexyl)-3-isopropyl-1H-indol-5-amine] | 767 nM | 1400 nM
COc1ccc(-c2[nH]c3ccc(NC4CCC(N5CCN(CC(C)C)CC5)CC4)cc3c2C(C)C)cc1OC (centres unmarked) [Example 52, 2-(3,4-dimethoxyphenyl)-N-(4-(4-isobutylpiperazin-1-yl)cyclohexyl)-3-isopropyl-1H-indol-5-amine] | 403 nM | 1580 nM
COc1ccc(-c2[nH]c3ccc(NC4CCC(N5CCN(CC(C)C)CC5)CC4)cc3c2C(C)C)cc1OC (centres unmarked) [Example 53, 2-(3,4-dimethoxyphenyl)-N-(4-(4-isobutylpiperazin-1-yl)cyclohexyl)-3-isopropyl-1H-indol-5-amine] | 659 nM | 1210 nM
COc1ccc(-c2[nH]c3ccc(NC4CCC(N5CCN(C6CCCC6)CC5)CC4)cc3c2C(C)C)cc1OC (centres unmarked) [Example 57, N-(4-(4-cyclopentylpiperazin-1-yl)cyclohexyl)-2-(3,4-dimethoxyphenyl)-3-isopropyl-1H-indol-5-amine] | 353 nM | 460 nM
COc1ccc(-c2[nH]c3ccc(NC4CCC(N5CCN(C6CCCC6)CC5)CC4)cc3c2C(C)C)cc1OC (centres unmarked) [Example 58, N-(4-(4-cyclopentylpiperazin-1-yl)cyclohexyl)-2-(3,4-dimethoxyphenyl)-3-isopropyl-1H-indol-5-amine] | 351 nM | 1080 nM
COc1ccc(-c2[nH]c3ccc(NC4CCC(N5CCN(CCN6CCCC6)CC5)CC4)cc3c2C(C)C)cc1OC (centres unmarked) [Example 64, 2-(3,4-dimethoxyphenyl)-3-isopropyl-N-(4-(4-(2-(pyrrolidin-1-yl)ethyl)piperazin-1-yl)cyclohexyl)-1H-indol-5-amine] | 357 nM | 555 nM
COc1ccc(-c2[nH]c3ccc(NC4CCC(N5CCN(Cc6ccc(C)cc6)CC5)CC4)cc3c2C(C)C)cc1OC (centres unmarked) [Example 65, 2-(3,4-dimethoxyphenyl)-3-isopropyl-N-(4-(4-(4-methylbenzyl)piperazin-1-yl)cyclohexyl)-1H-indol-5-amine] | 1180 nM | 588 nM
COc1ccc(-c2[nH]c3ccc(NC4CCC(N5CCN(Cc6ccc(C)cc6)CC5)CC4)cc3c2C(C)C)cc1OC (centres unmarked) [Example 66, 2-(3,4-dimethoxyphenyl)-3-isopropyl-N-(4-(4-(4-methylbenzyl)piperazin-1-yl)cyclohexyl)-1H-indol-5-amine] | 686 nM | 583 nM
COc1ccc(-c2[nH]c3ccc(NC4CCC(N5CCN(CCCN6CCCC6)CC5)CC4)cc3c2C(C)C)cc1OC (centres unmarked) [Example 67, 2-(3,4-dimethoxyphenyl)-3-isopropyl-N-(4-(4-(3-(pyrrolidin-1-yl)propyl)piperazin-1-yl)cyclohexyl)-1H-indol-5-amine] | 322 nM | 589 nM
COc1ccc(-c2[nH]c3ccc(N4CCC(N5CCN(CC6CC6)CC5)CC4)cc3c2C(C)C)cc1OC [Example 87, 5-(4-(4-(cyclopropylmethyl)piperazin-1-yl)piperidin-1-yl)-2-(3,4-dimethoxyphenyl)-3-isopropyl-1H-indole] | 337 nM | 9800 nM

Compounds with a lower IC50 (human TLR7), results first:

IC50 (human TLR7) | IC50 (human TLR9) | Compound
269 nM | 970 nM | COCCN1CCN(C2CCC(Nc3ccc4[nH]c(-c5ccc(OC)c(OC)c5)c(C(C)C)c4c3)CC2)CC1 (centres unmarked) [Example 54, 2-(3,4-dimethoxyphenyl)-3-isopropyl-N-(4-(4-(2-methoxyethyl)piperazin-1-yl)cyclohexyl)-1H-indol-5-amine]
167 nM | 631 nM | COc1ccc(-c2[nH]c3ccc(NC4CCC(NCCCN5CCOCC5)CC4)cc3c2C(C)C)cc1OC (centres unmarked) [Example 55, N1-(2-(3,4-dimethoxyphenyl)-3-isopropyl-1H-indol-5-yl)-N4-(3-morpholinopropyl)cyclohexane-1,4-diamine]
136 nM | 590 nM | COc1ccc(-c2[nH]c3ccc(NC4CCC(NCCCN5CCOCC5)CC4)cc3c2C(C)C)cc1OC (centres unmarked) [Example 56, N1-(2-(3,4-dimethoxyphenyl)-3-isopropyl-1H-indol-5-yl)-N4-(3-morpholinopropyl)cyclohexane-1,4-diamine]
257 nM | 405 nM | COc1ccc(-c2[nH]c3ccc(NC4CCC(N5CCN(CCN6CCCC6)CC5)CC4)cc3c2C(C)C)cc1OC (centres unmarked) [Example 63, 2-(3,4-dimethoxyphenyl)-3-isopropyl-N-(4-(4-(2-(pyrrolidin-1-yl)ethyl)piperazin-1-yl)cyclohexyl)-1H-indol-5-amine]
206 nM | 3860 nM | COc1ccc(-c2[nH]c3ccc(N4CCC(NCCN(C)C)CC4)cc3c2C(C)C)cc1OC [Example 75, N1-(1-(2-(3,4-dimethoxyphenyl)-3-isopropyl-1H-indol-5-yl)piperidin-4-yl)-N2,N2-dimethylethane-1,2-diamine]
114 nM | 6560 nM | COc1ccc(-c2[nH]c3ccc(N4CCC(N5CCN(C(C)=O)CC5)CC4)cc3c2C(C)C)cc1OC [Example 82, 1-(4-(1-(2-(3,4-dimethoxyphenyl)-3-isopropyl-1H-indol-5-yl)piperidin-4-yl)piperazin-1-yl)ethan-1-one]
287 nM | 1290 nM | COc1ccc(-c2[nH]c3ccc(N4CCC(N5CCC(N(C)C)CC5)CC4)cc3c2C(C)C)cc1OC [Example 83, 1′-(2-(3,4-dimethoxyphenyl)-3-isopropyl-1H-indol-5-yl)-N,N-dimethyl-[1,4′-bipiperidin]-4-amine]
69 nM | 4640 nM | COc1ccc(-c2[nH]c3ccc(N4CCC(N5CCCN(C(C)=O)CC5)CC4)cc3c2C(C)C)cc1OC [Example 88, 1-(4-(1-(2-(3,4-dimethoxyphenyl)-3-isopropyl-1H-indol-5-yl)piperidin-4-yl)-1,4-diazepan-1-yl)ethan-1-one]
132 nM | 925 nM | COc1ccc(-c2[nH]c3ccc(N4CCC(N5CCN(C6CCCC6)CC5)CC4)cc3c2C(C)C)cc1OC [Example 93, 5-(4-(4-cyclopentylpiperazin-1-yl)piperidin-1-yl)-2-(3,4-dimethoxyphenyl)-3-isopropyl-1H-indole]
